Measured values reported in patent US20050261298A1, “Methods of treating conditions associated with an Edg-7 receptor” (priority 2002, published 2005).

Experiments:
human Edg 7 receptors = target: T1, human Edg 7 receptors (Homo sapiens, UniProt Q9UBY5); experiment: Calcium mobilization assay (FLIPR), inhibition of LPA response; type: cell-based
T1 construct: expressed in transfected cells
T1 sequence (Q9UBY5 1-353): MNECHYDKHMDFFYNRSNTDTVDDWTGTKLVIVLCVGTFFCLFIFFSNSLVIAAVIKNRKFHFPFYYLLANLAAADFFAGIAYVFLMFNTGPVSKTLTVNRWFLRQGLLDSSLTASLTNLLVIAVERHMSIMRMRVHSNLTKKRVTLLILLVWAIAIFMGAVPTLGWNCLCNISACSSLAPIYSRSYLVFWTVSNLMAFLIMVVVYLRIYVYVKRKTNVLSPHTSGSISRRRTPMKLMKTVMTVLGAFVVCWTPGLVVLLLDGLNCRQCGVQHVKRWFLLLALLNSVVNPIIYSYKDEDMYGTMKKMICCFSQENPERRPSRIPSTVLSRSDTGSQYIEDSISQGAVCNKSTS
Experimental: The compounds were tested in HTC cells expressing human Edg 7 receptors. […] The compounds are tested in this recombinant system first, and subsequently tested in cell lines expressing Edg-7 (in addition to other Edg receptors).
The radioligand binding assays were conducted as described in Section 6.15 (Example 15).
LPA receptors such as Edg-7, couple to calcium effector pathways, and result in increases in intracellular calcium following receptor activation (An, 1998, J. Cell. Biochem Supp. 30-31:147-157). This biological response lends itself to a very efficient, high-throughput screen using a Fluorescence Imaging Plate Reader (FLIPR; Molecular Devices, Sunnyvale, Calif.). The FLIPR system is a real-time, cell-based assay system with continuous fluorescence detection using a cooled CCD camera. The FLIPR system was used to developing an Edg-7 receptor screen. Rat hepatoma cells stably expressing Edg-7 receptor were plated on 384-well plates and loaded with a calcium dye loading kit (Molecular Devices, Sunnyvale, Calif.) for 1 hour at room temperature. Cells were then placed on the FLIPR^384 (Molecular Devices, Sunnyvale, Calif.) and excited by an argon laser at […]. The data for the entire 384-well plate was updated every second. An integrated robotic pipettor allowed for simultaneous compound addition into each individual well in the plate

CCOC(=O)c1c(NC(=O)NS(=O)(=O)c2ccccc2Cl)sc2c1CCCC2 [Compound 101]
selective inhibition of the Edg-7 receptor (FIG. 1, FIG. 2) (human Edg 7 receptors; HTC cells expressing Edg-7): specifically inhibit | IC50 (human Edg 7 receptors; HTC cells expressing human Edg 7): 1590 nM | Fold Selectivity (human Edg 7 receptors; inhibitory selectivity for Edg-7 relative to other Edg receptors): >12.6 Fold | melting point: 222 to 225 °C
